According to PMC9797592, “TJ-M2010-5, a novel CNS drug candidate, attenuates acute cerebral ischemia-reperfusion injury through the MyD88/NF-κB and ERK pathway” (Frontiers in Pharmacology, 2022):
Where two headings read alike, the source gives them in different places.

Columns and labels:
CIRI mice [1] = experiment: MCAO cerebral ischemia-reperfusion injury model: neurological deficit score and TTC infarct volume; assay type: in vivo, C57BL/6 mice
Description: Male C57BL/6 mice (Beijing Vital River Laboratory Animal Technology Co. Ltd., Beijing, China) weighing 22–28 g and aged 8–10 weeks were used. All animal experiments were approved by the Institutional Animal Care and Use Committee of Tongji Hospital (Wuhan, China). All procedures were performed in accordance with specific pathogen-free standards. Mice were randomly divided into the following seven groups: sham, I/R, vehicle (I/R + saline), I/R + TJ-5 (5 mg/kg), I/R + TJ-5 (10 mg/kg), I/R + TJ-5 (15 mg/kg), and I/R + edaravone (3 mg/kg).
The mice were anesthetized with 1% pentobarbital sodium solution via intraperitoneal injection, and the body temperature was maintained at 37.0°C–37.5°C. The middle cerebral artery occlusion (MCAO) model was established according to the Longa method, as described previously ([Longa et al., 1989]). In brief, the right carotid artery was carefully separated and exposed. A silicon-coated embolic suture (Doccol, United States) was inserted slowly from the external carotid artery (ECA) into the internal carotid artery (ICA) until it reached the middle cerebral artery (MCA). After 1 h of ischemia, the embolic suture was withdrawn. The surgical procedure in the sham group was the same as that in the I/R group, but the MCA was not obstructed.
After 24 h of reperfusion, each group of mice was scored blindly, according to the scoring system of the Longa method ([Longa et al., 1989]). The score was 0 for no obvious neurological deficit, one for inability to fully extend the left forelimb, two for turning to the left, three for leaning to the left while walking, and four for the inability to walk spontaneously and impaired consciousness.
The mice were sacrificed 24 h after I/R. Mouse brains were harvested for the measurement of cerebral infarct volume. The brains were frozen at −80°C for 5 min and cut into five 2-mm thick slices. The slices were then placed in a small dish, 2% 2,3,5-triphenyltetrazolium chloride (TTC) solution (Sigma, United States) was added, and 4% paraformaldehyde was used for fixation. Images were captured using a digital camera. ImageJ software was used to measure the volume of the brain infarction.

CIRI mice [2] = experiment: Immunofluorescence staining (NeuN, TUNEL, Iba-1) of brain slices of CIRI mice; assay type: in vivo, C57BL/6 mice
Description: As mentioned previously, immunofluorescence staining was performed on paraffin-embedded brain slices ([Ye et al., 2020]). After standard histological procedures, the slices were treated with the TUNEL (terminal deoxynucleotidyl transferase dUTP nick end labeling) reaction mixture to detect apoptosis according to the manufacturer’s protocol (Roche, Germany). Furthermore, the slices were used for immunofluorescence with rabbit anti-NeuN antibody (1:300, CST) and rabbit anti-Iba-1 antibody (1:500, CST). After incubating overnight at 4°C, goat anti-rabbit IgG (1:1000) secondary antibodies were applied, and the brain slices were incubated for 2 h at room temperature. Finally, the slices were washed and labeled with 4′,6-diamidino-2-phenylindole for 10 min at room temperature. Images were captured using a fluorescence microscope.

[3] = Drug concentration in serum and tissues by LC-MS, pharmacokinetics and BBB permeability; assay type: in vivo, mice; settings: for concentration in CL brain: contralateral non-ischemic hemisphere; for concentration in CL brain / AUC(0-t) / concentration at 5 min / concentration at 10 min / concentration at 30 min / concentration at 1 h / concentration at 2 h / concentration at 6 h: mean ± SD; for Kp / half-life / AUC(0-t) / concentration at 5 min / concentration at 10 min / concentration at 30 min / concentration at 1 h / concentration at 2 h / concentration at 6 h: C57BL/6, mouse; for Kp / half-life / AUC(0-t): iv; for Kp: mean AUC0–6 h ratio, read-out: Kp (brain-serum ratio, AUCbrain/AUCserum); for half-life: read-out: t1/2 (elimination half-life) (converted); for AUC(0-t): read-out: AUC0–6 h; for concentration at 5 min / concentration at 10 min / concentration at 30 min / concentration at 1 h / concentration at 2 h / concentration at 6 h: intravenous
Description: The mice were intravenously injected with 15 mg/kg TJ-5 at the time of reperfusion 1 h after MCAO or Sham. The mice were then anesthetized at 5 min, 10 min, 30 min, 1 h, and 2 h, or 6 h post-dosing. Blood was collected to prepare serum samples, and the ipsilateral ischemic hemisphere (IL brain), contralateral non-ischemic hemisphere (CL brain), heart, and liver samples were obtained after transcardial perfusion with 0.9% saline. Liquid chromatography-mass spectrometry (LC-MS) was performed to determine the concentration of TJ-5 in the samples. The time-concentration curve, area under the curve (AUC), and pharmacokinetic (PK) parameters of TJ-5 were analyzed using the PKslover 2.0 PK software ([Zhang et al., 2010]). BBB permeability was evaluated using the brain-to-serum partition coefficient (Kp), which was calculated as AUCbrain/AUCserum.

**Q.** Which results are given for `O=C(CCN1CCN(Cc2ccccc2)CC1)Nc1nc(-c2ccccc2)cs1` [TJ-5]?
**A.** percentage of infarct volume (CIRI mice [1]; TJ-5 15 mg/kg i.v. at 1 h of ischemia, 24 h reperfusion, TTC, I/R group 34.24%): 8.47%; neurological deficit score (CIRI mice [1]; TJ-5 15 mg/kg vs I/R group, 24 h reperfusion, Longa score): significantly lower; infarct volume (CIRI mice [1]; intravenous TJ-5 at 4 h reperfusion, TTC at 24 h after reperfusion): effectively reduced infarct volume; apoptosis (TUNEL) in whole brain and ischemic penumbra of the cortex (CIRI mice [2]; TJ-5 15 mg/kg i.v. after 1 h ischemia): significantly reduced; number of neurons (NeuN) in the injured hemisphere (CIRI mice [2]; TJ-5 15 mg/kg vs vehicle group): significantly increased; number of Iba-1 positive cells in cortex (CIRI mice [2]; TJ-5 15 mg/kg, vs I/R group): significantly decreased; concentration in CL brain ([3]; 15 mg/kg i.v. at reperfusion 1 h after MCAO, 5 min): 5877.53 ± 989.32 ng/g; concentration in CL brain ([3]; 15 mg/kg i.v. at reperfusion 1 h after MCAO, 10 min): 5364.30 ± 749.83 ng/g; concentration in CL brain ([3]; 15 mg/kg i.v. at reperfusion 1 h after MCAO, 30 min): 2480.87 ± 985.41 ng/g; concentration in CL brain ([3]; 15 mg/kg i.v. at reperfusion 1 h after MCAO, 1 h): 1662.40 ± 117.03 ng/g; concentration in CL brain ([3]; 15 mg/kg i.v. at reperfusion 1 h after MCAO, 2 h): 347.65 ± 55.25 ng/g; concentration in CL brain ([3]; 15 mg/kg i.v. at reperfusion 1 h after MCAO, 6 h): 10.43 ± 5.69 ng/g; BBB permeability ([3]; 15 mg/kg i.v., brain vs serum concentrations): good BBB permeability; Kp ([3]; CL brain (contralateral non-ischemic hemisphere) / serum, 15 mg/kg i.v., CL brain): 5.21; Kp ([3]; IL brain (ipsilateral ischemic hemisphere) / serum, 15 mg/kg i.v., IL brain): 5.58; Kp ([3]; brain (Sham) / serum, 15 mg/kg i.v., Sham brain): 4.98; half-life ([3]; contralateral non-ischemic hemisphere (CL brain), 15 mg/kg i.v., CL brain): 24.6 min; AUC(0-t) ([3]; contralateral non-ischemic hemisphere (CL brain), 15 mg/kg i.v., CL brain, tissue density assumed 1 g/ml): 4790 ± 353 ng·h/mL; concentration at 5 min ([3]; 15 mg/kg i.v., Sham brain, 5 min, read-out: concentration in Sham brain): 6230 ± 436 ng/g; concentration at 10 min ([3]; 15 mg/kg i.v., Sham brain, 10 min, read-out: concentration in Sham brain): 4900 ± 53.9 ng/g; concentration at 30 min ([3]; 15 mg/kg i.v., Sham brain, 30 min, read-out: concentration in Sham brain): 2730 ± 256 ng/g; concentration at 1 h ([3]; 15 mg/kg i.v., Sham brain, 1 h, read-out: concentration in Sham brain): 1580 ± 469 ng/g; concentration at 2 h ([3]; 15 mg/kg i.v., Sham brain, 2 h, read-out: concentration in Sham brain): 268 ± 6.25 ng/g; concentration at 6 h ([3]; 15 mg/kg i.v., Sham brain, 6 h, read-out: concentration in Sham brain): 18.7 ± 11 ng/g; concentration at 5 min ([3]; 15 mg/kg i.v., heart, 5 min, read-out: concentration in heart): 5910 ± 825 ng/g; concentration at 10 min ([3]; 15 mg/kg i.v., heart, 10 min, read-out: concentration in heart): 4590 ± 352 ng/g; concentration at 30 min ([3]; 15 mg/kg i.v., heart, 30 min, read-out: concentration in heart): 4730 ± 2060 ng/g; concentration at 1 h ([3]; 15 mg/kg i.v., heart, 1 h, read-out: concentration in heart): 1660 ± 335 ng/g; concentration at 2 h ([3]; 15 mg/kg i.v., heart, 2 h, read-out: concentration in heart): 684 ± 199 ng/g; concentration at 6 h ([3]; 15 mg/kg i.v., heart, 6 h, read-out: concentration in heart): 51.6 ± 11.9 ng/g; concentration at 5 min ([3]; 15 mg/kg i.v., liver, 5 min, read-out: concentration in liver): 7160 ± 594 ng/g; concentration at 10 min ([3]; 15 mg/kg i.v., liver, 10 min, read-out: concentration in liver): 5890 ± 528 ng/g; concentration at 30 min ([3]; 15 mg/kg i.v., liver, 30 min, read-out: concentration in liver): 4710 ± 1130 ng/g; concentration at 1 h ([3]; 15 mg/kg i.v., liver, 1 h, read-out: concentration in liver): 2960 ± 1030 ng/g; concentration at 2 h ([3]; 15 mg/kg i.v., liver, 2 h, read-out: concentration in liver): 750 ± 249 ng/g; concentration at 6 h ([3]; 15 mg/kg i.v., liver, 6 h, read-out: concentration in liver): 170 ± 36.1 ng/g; concentration at 5 min ([3]; 15 mg/kg i.v., serum, 5 min, read-out: concentration in serum): 1190 ± 209 ng/mL; concentration at 10 min ([3]; 15 mg/kg i.v., serum, 10 min, read-out: concentration in serum): 980 ± 203 ng/mL; concentration at 30 min ([3]; 15 mg/kg i.v., serum, 30 min, read-out: concentration in serum): 472 ± 151 ng/mL; concentration at 1 h ([3]; 15 mg/kg i.v., serum, 1 h, read-out: concentration in serum): 285 ± 29.1 ng/mL; concentration at 2 h ([3]; 15 mg/kg i.v., serum, 2 h, read-out: concentration in serum): 79.6 ± 26.9 ng/mL; concentration at 6 h ([3]; 15 mg/kg i.v., serum, 6 h, read-out: concentration in serum): 2.08 ± 1.12 ng/mL; concentration at 5 min ([3]; ipsilateral ischemic hemisphere (IL brain), 15 mg/kg i.v. at reperfusion 1 h after MCAO, ipsilateral ischemic hemisphere, 5 min, read-out: concentration in IL brain): 6650 ± 591 ng/g; concentration at 10 min ([3]; ipsilateral ischemic hemisphere (IL brain), 15 mg/kg i.v. at reperfusion 1 h after MCAO, ipsilateral ischemic hemisphere, 10 min, read-out: concentration in IL brain): 5799 ± 29.8 ng/g; concentration at 30 min ([3]; ipsilateral ischemic hemisphere (IL brain), 15 mg/kg i.v. at reperfusion 1 h after MCAO, ipsilateral ischemic hemisphere, 30 min, read-out: concentration in IL brain): 2890 ± 611 ng/g; concentration at 1 h ([3]; ipsilateral ischemic hemisphere (IL brain), 15 mg/kg i.v. at reperfusion 1 h after MCAO, ipsilateral ischemic hemisphere, 1 h, read-out: concentration in IL brain): 1750 ± 164 ng/g; concentration at 2 h ([3]; ipsilateral ischemic hemisphere (IL brain), 15 mg/kg i.v. at reperfusion 1 h after MCAO, ipsilateral ischemic hemisphere, 2 h, read-out: concentration in IL brain): 327 ± 57.2 ng/g; concentration at 6 h ([3]; ipsilateral ischemic hemisphere (IL brain), 15 mg/kg i.v. at reperfusion 1 h after MCAO, ipsilateral ischemic hemisphere, 6 h, read-out: concentration in IL brain): 11.7 ± 6.43 ng/g; half-life ([3]; ipsilateral ischemic hemisphere (IL brain), 15 mg/kg i.v., IL brain): 24.6 min; AUC(0-t) ([3]; ipsilateral ischemic hemisphere (IL brain), 15 mg/kg i.v., IL brain, tissue density assumed 1 g/ml): 5140 ± 239 ng·h/mL; half-life ([3]; 15 mg/kg i.v., Sham brain): 39 min; AUC(0-t) ([3]; 15 mg/kg i.v., Sham brain, tissue density assumed 1 g/ml): 4580 ± 276 ng·h/mL; half-life ([3]; 15 mg/kg i.v., heart): 40.2 min; AUC(0-t) ([3]; 15 mg/kg i.v., heart, tissue density assumed 1 g/ml): 6480 ± 769 ng·h/mL; half-life ([3]; 15 mg/kg i.v., liver): 42 min; AUC(0-t) ([3]; 15 mg/kg i.v., liver, tissue density assumed 1 g/ml): 8240 ± 852 ng·h/mL; AUC(0-t) ([3]; 15 mg/kg i.v., serum): 919 ± 82.2 ng·h/mL; half-life ([3]; 15 mg/kg i.v., serum): 22.8 min; time effective concentration is maintained ([3]; single intravenous injection of 15 mg/kg): about 6 h
